# According to US20220339143A1, “TAK-925 FOR USE IN TREATING NARCOLEPSY” (Takeda Pharmaceutical Company Limited, priority 2019, published 2022):
# Assay: Single dose PK in healthy subjects (Cohorts 1, 2, S1 and S2), plasma
# Type: in vivo, human
# Procedure: This study investigates (i) the safety and tolerability of Compound A (methyl (2R,3S)-3-((methylsulfonyl)amino)-2-(((cis-4-phenylcyclohexyl)oxy)methyl)piperidine-1-carboxylate) when a single dose given as a 9 hour continuous IV infusion is administered to healthy adults, healthy elderly subjects and patients with narcolepsy type 1 (NT1); (ii) the pharmacokinetics of Compound A when a single dose given as a 9 hour continuous IV infusion is administered to healthy adults, healthy elderly subjects and patients with narcolepsy type 1; and (iii) the pharmacodynamics (PD) effects of Compound A, primarily by evaluation of the sleep latency on MWT when a single dose given as a 9 hour continuous IV infusion is administered to patients with narcolepsy type 1.
# Pharmacokinetics: Concentrations of Compound A in plasma, and CSF, and pharmacokinetics parameters.
# On average, the time to reach the plateau appeared to be approximately 3 to 4 hours after the start of infusion. […] After switching off the IV infusion, Compound A plasma concentrations declined rapidly and in a biphasic manner with a mean terminal disposition phase t1/2z ranging approximately from 3.4 to 5.1 hours across all doses. […] Table 5 provides a summary of plasma concentrations of Compound A after a single IV infusion in healthy subjects. Table 6 provides a summary of pharmacokinetic parameters of Compound A after a single IV infusion in healthy subjects.
# [1] = 7 mg single IV infusion, healthy subjects
# [2] = 7 mg, 0.17 hr After End of Infusion
# [3] = 14 mg single IV infusion, healthy subjects
# [4] = 28 mg single IV infusion, healthy subjects
# [5] = 28 mg, 0.17 hr After End of Infusion
# [6] = 28 mg, 0.33 hr After End of Infusion
# [7] = 28 mg, 0.5 hr After End of Infusion
# [8] = 28 mg, 0.75 hr After End of Infusion
# [9] = 28 mg, 1 hr After End of Infusion
# [10] = 28 mg, 1.5 hr After End of Infusion
# [11] = 28 mg, 2 hr After End of Infusion
# [12] = 56 mg single IV infusion, healthy subjects
# [13] = 56 mg, 0.17 hr After End of Infusion
# [14] = 56 mg, 0.33 hr After End of Infusion
# [15] = 56 mg, 0.5 hr After End of Infusion
# [16] = 56 mg, 0.75 hr After End of Infusion
# [17] = 56 mg, 1 hr After End of Infusion
# [18] = 56 mg, 1.5 hr After End of Infusion
smiles,measurement,setting,value
"COC(=O)N1CCC[C@H](NS(C)(=O)=O)[C@@H]1CO[C@H]1CC[C@@H](c2ccccc2)CC1 [Compound A, methyl (2R,3S)-3-((methylsulfonyl)amino)-2-(((cis-4-phenylcyclohexyl)oxy)methyl)piperidine-1-carboxylate]",AUCinf D Mean,[1],20.48 ng·h/mL/mg
same,AUCinf D Median,[1],20.80 ng·h/mL/mg
same,CL Median,[1],48.10 L/h
same,Cmax D Mean,[1],2.416 ng/mL/mg
same,Cmax D Median,[1],2.360 ng/mL/mg
same,Vss Median,[1],100.0 L
same,t½z Mean,[1],4.120 h
same,t½z Median,[1],3.220 h
same,"Plasma concentration, Mean",[2],9.360 ng/mL
same,"Plasma concentration, Minimum",[2],7.91 ng/mL
same,"Plasma concentration, Q1",[2],9.090 ng/mL
same,"Plasma concentration, Mean","7 mg, Predose",0.000 ng/mL
same,"Plasma concentration, Minimum","7 mg, Predose",0.00 ng/mL
same,"Plasma concentration, Q1","7 mg, Predose",0.000 ng/mL
same,AUCinf D Mean,[3],23.70 ng·h/mL/mg
same,AUCinf D Median,[3],23.05 ng·h/mL/mg
same,Cmax D Mean,[3],2.647 ng/mL/mg
same,Cmax D Median,[3],2.640 ng/mL/mg
same,t½z Mean,[3],4.498 h
same,t½z Median,[3],4.170 h
same,AUCinf D Mean,[4],18.90 ng·h/mL/mg
same,AUCinf D Median,[4],19.60 ng·h/mL/mg
same,Cmax D Mean,[4],2.076 ng/mL/mg
same,Cmax D Median,[4],2.120 ng/mL/mg
same,t½z Mean,[4],5.142 h
same,t½z Median,[4],5.060 h
same,"Plasma concentration, Maximum",[5],34.9 ng/mL
same,"Plasma concentration, Mean",[5],32.52 ng/mL
same,"Plasma concentration, Median",[5],32.80 ng/mL
same,"Plasma concentration, Minimum",[5],28.2 ng/mL
same,"Plasma concentration, Q1",[5],32.70 ng/mL
same,"Plasma concentration, Q3",[5],34.00 ng/mL
same,"Plasma concentration, Maximum",[6],32.2 ng/mL
same,"Plasma concentration, Mean",[6],28.04 ng/mL
same,"Plasma concentration, Median",[6],27.20 ng/mL
same,"Plasma concentration, Minimum",[6],25.4 ng/mL
same,"Plasma concentration, Q1",[6],26.70 ng/mL
same,"Plasma concentration, Q3",[6],28.70 ng/mL
same,"Plasma concentration, Maximum",[7],33.7 ng/mL
same,"Plasma concentration, Mean",[7],25.36 ng/mL
same,"Plasma concentration, Median",[7],24.20 ng/mL
same,"Plasma concentration, Minimum",[7],20.9 ng/mL
same,"Plasma concentration, Q1",[7],21.30 ng/mL
same,"Plasma concentration, Q3",[7],26.70 ng/mL
same,"Plasma concentration, Maximum",[8],23.9 ng/mL
same,"Plasma concentration, Mean",[8],20.82 ng/mL
same,"Plasma concentration, Median",[8],19.50 ng/mL
same,"Plasma concentration, Minimum",[8],19.0 ng/mL
same,"Plasma concentration, Q1",[8],19.10 ng/mL
same,"Plasma concentration, Q3",[8],22.60 ng/mL
same,"Plasma concentration, Maximum",[9],21.4 ng/mL
same,"Plasma concentration, Mean",[9],18.56 ng/mL
same,"Plasma concentration, Median",[9],18.00 ng/mL
same,"Plasma concentration, Minimum",[9],15.6 ng/mL
same,"Plasma concentration, Q1",[9],17.80 ng/mL
same,"Plasma concentration, Q3",[9],20.00 ng/mL
same,"Plasma concentration, Maximum",[10],18.9 ng/mL
same,"Plasma concentration, Mean",[10],16.70 ng/mL
same,"Plasma concentration, Median",[10],18.00 ng/mL
same,"Plasma concentration, Minimum",[10],13.6 ng/mL
same,"Plasma concentration, Q1",[10],14.90 ng/mL
same,"Plasma concentration, Q3",[10],18.10 ng/mL
same,"Plasma concentration, Maximum",[11],13.4 ng/mL
same,"Plasma concentration, Mean",[11],10.53 ng/mL
same,"Plasma concentration, Median",[11],9.600 ng/mL
same,"Plasma concentration, Minimum",[11],8.06 ng/mL
same,"Plasma concentration, Q1",[11],8.990 ng/mL
same,"Plasma concentration, Q3",[11],12.60 ng/mL
same,AUCinf D Mean,[12],19.27 ng·h/mL/mg
same,AUCinf D Median,[12],18.75 ng·h/mL/mg
same,Cmax D Mean,[12],2.200 ng/mL/mg
same,Cmax D Median,[12],2.170 ng/mL/mg
same,t½z Mean,[12],3.860 h
same,t½z Median,[12],3.760 h
same,"Plasma concentration, Maximum",[13],79.9 ng/mL
same,"Plasma concentration, Mean",[13],63.58 ng/mL
same,"Plasma concentration, Median",[13],62.50 ng/mL
same,"Plasma concentration, Minimum",[13],54.5 ng/mL
same,"Plasma concentration, Q1",[13],55.60 ng/mL
same,"Plasma concentration, Q3",[13],66.50 ng/mL
same,"Plasma concentration, Mean",[14],54.37 ng/mL
same,"Plasma concentration, Median",[14],53.25 ng/mL
same,"Plasma concentration, Minimum",[14],44.7 ng/mL
same,"Plasma concentration, Q1",[14],45.00 ng/mL
same,"Plasma concentration, Mean",[15],50.33 ng/mL
same,"Plasma concentration, Median",[15],50.10 ng/mL
same,"Plasma concentration, Minimum",[15],38.4 ng/mL
same,"Plasma concentration, Q1",[15],40.90 ng/mL
same,"Plasma concentration, Mean",[16],45.77 ng/mL
same,"Plasma concentration, Median",[16],47.20 ng/mL
same,"Plasma concentration, Minimum",[16],33.3 ng/mL
same,"Plasma concentration, Q1",[16],36.90 ng/mL
same,"Plasma concentration, Mean",[17],41.83 ng/mL
same,"Plasma concentration, Median",[17],39.80 ng/mL
same,"Plasma concentration, Minimum",[17],30.1 ng/mL
same,"Plasma concentration, Q1",[17],34.80 ng/mL
same,"Plasma concentration, Mean",[18],33.63 ng/mL
same,"Plasma concentration, Median",[18],31.35 ng/mL
same,"Plasma concentration, Minimum",[18],27.4 ng/mL
same,"Plasma concentration, Q1",[18],28.40 ng/mL
